Laboratory results as given in patent publication US8673908B2, “Kynurenine production inhibitor” (Kyowa Hakko Kirin Co., Ltd., priority 2008, dated 2014).

Tested on: kynurenine production in IFN-γ-treated KATO-III cells
Experiment: Inhibitory activity on kynurenine production (Test Example 1)
Format: cell-based
Details: Homo sapiens, IFN-γ treatment, culture for 96 hours, read-out: IC50 value, inhibition of kynurenine production
Method: This assay was performed according to a method modified from the method described in the Journal of Biological Chemistry (J. Biol. Chem.), vol. 263, pp. 2041-2048 (1988). Culture of KATO-III derived from human gastric cancer cells was performed by use of RPMI 1640 (GIBCO, 11875) supplemented with 10 vol % FBS (GIBCO, 10091-148, lot. 665285). 1 μL of a DMSO solution of the test substance was diluted with 199 μL of the culture medium, and the diluted solution was added to wells of a 384 well plate (10 μL/well). Then, IFN-γ (Sigma, 1-3265) was added to the culture medium so that the concentration of IFN-γ was 31.25 ng/mL, and the KATO-III cells were suspended at 50,000 cells/ml, in the culture medium. 40 μL of the suspension was added to each well (2,000 cells/well), and culture of the KATO-III cells was performed at 37° C. under a 5% CO2 atmosphere for 96 hours. The final concentration of DMSO was limited to 0.1 vol % or less so that DMSO itself might not affect the kynurenine concentration measured by this assay. After the culture, 10 μL of a 30 w/v % aqueous trichloroacetic acid solution was added to each well, and incubation was performed at 65° C. for 30 minutes. The plate was centrifuged at 2,500×g for 5 minutes, and then 15 μL of the supernatant in each well was transferred into another 384 well plate. To each of the transferred supernatants, 15 μL of a 2 w/v % solution of p-dimethylaminobenzaldehyde in acetic acid was added, incubation was performed at 65° C. for 20 minutes, and then the absorbance at 480 nm was measured.
[formula] Sample: the absorbance value of the well to which a DMSO solution containing the test substance was added and in which cells were treated with IFN-γ. Blank: the absorbance value of the well to which only DMSO, not the test substance was added and in which cells were treated with IFN-γ. Control: the absorbance value of the well to which only DMSO, not the test substance was added and in which cells were not treated with IFN-γ.
In this assay, expression of IDO in KATO-III cells is induced by IFN-γ treatment and then kynurenine in the culture medium is quantified. It is known that the kynurenine concentration in a culture medium increases in proportion to the enzymatic activity of intracellular IDO (for example, the Journal of Biological Chemistry (J. Biol. Chem.), vol. 263, pp. 2041-2048 (1988)). […] It is known that kynurenine production is inhibited by IDO inhibitors (for example, the Journal of Clinical Investigation (J. Clin. Invest.), vol. 117, No. 5, pp. 1147-1154 […]), and thus it is expected that Compound (I) also has an inhibitory effect on IDO.

## O=S(=O)(Nc1nc2ccccc2nc1OC(c1cccnc1)c1cncs1)c1ccccc1Cl (stereo not shown) [Compound 243, 2-chloro-N-{3-[pyridin-3-yl(thiazol-5-yl)methoxy]-quinoxalin-2-yl}benzenesulfonamide]
  IC50: < 1000 nM

## O=S(=O)(Nc1nc2ccccc2nc1OC(c1cccnc1)C(F)(F)F)c1ccsc1 (stereo not shown) [Compound 161, N-{3-[2,2,2-trifluoro-1-(pyridin-3-yl)ethoxy]quinoxalin-2-yl}thiophene-3-sulfonamide]
  IC50: < 1000 nM

## O=S(=O)(Nc1nc2ccccc2nc1OC(C1CCOCC1)C(F)(F)F)c1ccccc1Cl (stereo not shown) [Compound 116, 2-chloro-N-{3-[2,2,2-trifluoro-1-(tetrahydro-2H-pyran-4-yl)ethoxy]quinoxalin-2-yl}benzenesulfonamide]
  IC50: < 1000 nM

## O=CCCNS(=O)(=O)Nc1nc2ccccc2nc1OC(c1cccnc1)C(F)(F)F (stereo not shown) [Compound 273, N-{3-[2,2,2-trifluoro-1-(pyridin-3-yl)ethoxy]quinoxalin-2-yl}-N′-(3-oxopropyl)-sulfuric diamide]
  IC50: 1000 to 10000 nM

## C#CCNS(=O)(=O)Nc1nc2ccccc2nc1OC(c1cccnc1)C(F)(F)F (stereo not shown) [Compound 274, N-{3-[2,2,2-trifluoro-1-(pyridin-3-yl)ethoxy]quinoxalin-2-yl}-N′-(2-propynyl)-sulfuric diamide]
  IC50: < 1000 nM

## CC(C)(C)OC(=O)NCCc1ccc(S(=O)(=O)Nc2nc3ccccc3nc2OC(c2cccnc2)C(F)(F)F)cc1 (stereo not shown) [Compound 208, tert-butyl 4-(N-{3-[2,2,2-trifluoro-1-(pyridin-3-yl)ethoxy]quinoxalin-2-yl}sulfamoyl)phenethylcarbamate]
  IC50: < 1000 nM

## CCn1cncc1C(Oc1nc2ccccc2nc1NS(=O)(=O)c1ccccc1Cl)C(F)(F)F (stereo not shown) [Compound 108, 2-chloro-N-{3-[2,2,2-trifluoro-1-(1-ethyl-1H-imidazol-5-yl)ethoxy]quinoxalin-2-yl}benzenesulfonamide]
  IC50: < 1000 nM

## O=S(=O)(Nc1nc2ccccc2nc1OC(c1cccnc1)C1CCOCC1)c1ccccc1Cl (stereo not shown) [Compound 73, 2-chloro-N-{3-[tetrahydropyran-4-yl(pyridin-3-yl)methoxy]-quinoxalin-2-yl}benzenesulfonamide]
  IC50: < 1000 nM

## Cc1ccc(C(Oc2nc3ccccc3nc2NS(=O)(=O)c2c(C)noc2C)C(F)(F)F)cn1 (stereo not shown) [Compound 70, 3,5-dimethyl-N-{3-[2,2,2-trifluoro-1-(6-methylpyridin-3-yl)ethoxy]quinoxalin-2-yl}isoxazole-4-sulfonamide]
  IC50: < 1000 nM

## Cc1nn(C)c(Cl)c1S(=O)(=O)Nc1nc2ccccc2nc1OC(C1CCOCC1)C(F)(F)F (stereo not shown) [Compound 120, 5-chloro-1,3-dimethyl-N-{3-[2,2,2-trifluoro-1-(tetrahydro-2H-pyran-4-yl)ethoxy]quinoxalin-2-yl}-1H-pyrazole-4-sulfonamide]
  IC50: < 1000 nM

## COCOc1ccc(C(Oc2nc3ccccc3nc2NS(=O)(=O)c2ccccc2Cl)C(F)(F)F)cc1 (stereo not shown) [Compound 56, 2-chloro-N-{3-[2,2,2-trifluoro-1-(4-methoxymethoxyphenyl)-ethoxy]quinoxalin-2-yl}benzenesulfonamide]
  IC50: < 1000 nM

## O=S(=O)(Nc1nc2ccccc2nc1OCc1ccc2ccccc2c1)c1ccc(C(F)(F)F)cc1 [Compound 23, 4-(trifluoromethyl)-N-{3-[(2-naphthyl)methoxy]quinoxalin-2-yl}benzenesulfonamide]
  IC50: < 1000 nM

## CCCS(=O)(=O)Nc1nc2ccccc2nc1OC(C(F)(F)F)C1(F)CCN(C(C)=O)CC1 (stereo not shown) [Compound 354, N-{3-[2,2,2-trifluoro-1-(1-acetyl-4-fluoropiperidin-4-yl)-ethoxy]quinoxalin-2-yl}propane-1-sulfonamide]
  IC50: < 1000 nM

## O=S(=O)(Nc1ncc(Cl)nc1OCc1ccc2ccccc2c1)c1cccc(Cl)c1Cl [Compound 3]
  IC50: 1000 to 10000 nM

## O=S(=O)(Nc1nc2ccccc2nc1OC(c1cn(CC2CC2)cn1)C(F)(F)F)c1ccccc1Cl (stereo not shown) [Compound 112, 2-chloro-N-{3-[2,2,2-trifluoro-1-(1-cyclopropylmethyl-1H-imidazol-4-yl)ethoxy]quinoxalin-2-yl}benzenesulfonamide]
  IC50: < 1000 nM

## O=S(=O)(Nc1nc2ccccc2nc1OC(c1ccco1)C(F)(F)F)c1ccccc1Cl (stereo not shown) [Compound 109, 2-chloro-N-{3-[2,2,2-trifluoro-1-(furan-2-yl)ethoxy]-quinoxalin-2-yl}benzenesulfonamide]
  IC50: < 1000 nM

## Cc1cc(S(=O)(=O)Nc2nc3ccccc3nc2OC(c2cccnc2)C(F)(F)F)c(C(F)(F)F)o1 (stereo not shown) [Compound 143, 5-methyl-N-{3-[2,2,2-trifluoro-1-(pyridin-3-yl)ethoxy]-quinoxalin-2-yl}-2-(trifluoromethyl)furan-3-sulfonamide]
  IC50: < 1000 nM

## O=S(=O)(Nc1nc2ccccc2nc1OC(c1cncs1)C(F)(F)F)c1ccccc1Cl (stereo not shown) [Compound 113, 2-chloro-N-{3-[2,2,2-trifluoro-1-(thiazol-5-yl)ethoxy]-quinoxalin-2-yl}benzenesulfonamide]
  IC50: < 1000 nM

## O=S(=O)(Nc1nc2ccccc2nc1OC(c1cccnc1)C(F)(F)C(F)(F)F)c1cccc(Cl)c1Cl (stereo not shown) [Compound 46, 2,3-dichloro-N-{3-[3,3,3,2,2-pentafluoro-1-(pyridin-3-yl)-propoxy]quinoxalin-2-yl}benzenesulfonamide]
  IC50: < 1000 nM

## CS(=O)(=O)Nc1nc2ccccc2nc1OC(c1cccnc1)C(F)(F)F (stereo not shown) [Compound 148, N-{3-[2,2,2-trifluoro-1-(pyridin-3-yl)ethoxy]quinoxalin-2-yl}methanesulfonamide]
  IC50: 1000 to 10000 nM

## CCCS(=O)(=O)Nc1nc2ccccc2nc1OC(c1ccc(C#N)cc1)C(F)(F)F (stereo not shown) [Compound 202, N-{3-[1-(4-cyanophenyl)-2,2,2-trifluoroethoxy]quinoxalin-2-yl}propane-1-sulfonamide]
  IC50: < 1000 nM

## CC1(COc2nc3ccccc3nc2NS(=O)(=O)c2ccccc2Cl)COCOC1 [Compound 251, 2-chloro-N-{3-[(5-methyl-1,3-dioxan-5-yl)methoxy]-quinoxalin-2-yl}benzenesulfonamide]
  IC50: 1000 to 10000 nM

## CCCS(=O)(=O)Nc1nc2ccccc2nc1O[C@H](c1cnc(C)s1)C(F)(F)F [Compound 342, (S)—N-{3-[2,2,2-trifluoro-1-(2-methylthiazol-5-yl)ethoxy]-quinoxalin-2-yl}propane-1-sulfonamide]
  IC50: < 1000 nM

## O=S(=O)(Nc1nc2ccccc2nc1OC(C1CCCCC1)C(F)(F)F)c1cccc(Cl)c1Cl (stereo not shown) [Compound 102, 2,3-dichloro-N-[3-(1-cyclohexyl-2,2,2-trifluoroethoxy)-quinoxalin-2-yl]benzenesulfonamide]
  IC50: < 1000 nM

## CCCS(=O)(=O)Nc1nc2ccccc2nc1O[C@H](c1ccc(C)nc1)C(F)(F)F [Compound 319, (R)—N-{3-[2,2,2-trifluoro-1-(6-methylpyridin-3-yl)ethoxy]-quinoxalin-2-yl}propane-1-sulfonamide]
  IC50: < 1000 nM

## O=S(=O)(Nc1nc2ccccc2nc1OC(c1cncs1)C(F)(F)F)NC1CC1 (stereo not shown) [Compound 286, N-{3-[2,2,2-trifluoro-1-(thiazol-5-yl)ethoxy]quinoxalin-2-yl}-N′-cyclopropyl-sulfuric diamide]
  IC50: < 1000 nM

## O=S(=O)(Nc1nc2ccccc2nc1OC(c1cccnc1)C(F)(F)F)c1cc(Cl)cc(Cl)c1 (stereo not shown) [Compound 152, 3,5-dichloro-N-{3-[2,2,2-trifluoro-1-(pyridin-3-yl)ethoxy]-quinoxalin-2-yl}benzenesulfonamide]
  IC50: < 1000 nM

## O=S(=O)(Nc1nc2ccccc2nc1OC(c1cccnc1)c1cccnc1)c1ccccc1Cl [Compound 242, 2-chloro-N-[3-(dipyridin-3-ylmethoxy)quinoxalin-2-yl]-benzenesulfonamide]
  IC50: < 1000 nM

## COc1ccc(COc2nc(Cl)cnc2NS(=O)(=O)c2cccc(Cl)c2Cl)cc1 [Compound 2]
  IC50: 1000 to 10000 nM

## O=Cc1ccc(C(Oc2nc3ccccc3nc2NS(=O)(=O)c2ccccc2Cl)C(F)(F)F)cc1 (stereo not shown) [Compound 58, 2-chloro-N-{3-[2,2,2-trifluoro-1-(4-formylphenyl)ethoxy]-quinoxalin-2-yl}benzenesulfonamide]
  IC50: < 1000 nM

## Cc1ccc(C(Oc2nc3ccccc3nc2NS(=O)(=O)c2ccccc2Cl)C(F)(F)F)cn1 (stereo not shown) [Compound 41, 2-chloro-N-{3-[2,2,2-trifluoro-1-(6-methylpyridin-3-yl)-ethoxy]quinoxalin-2-yl}benzenesulfonamide]
  IC50: < 1000 nM
